We go through three substances from PMC9051593, “Glucagonlike Peptide-1 Receptor Imaging in Individuals with Type 2 Diabetes” (Journal of Nuclear Medicine, 2022).

Like-named read-outs stand apart in the source and are kept apart here.

In data set [1] the target is T1, GLP1R (Macaca fascicularis, UniProt F8V479).
T1 construct: from tissue; host or cells: pancreas of living cynomolgus monkeys (in vivo PET)
Description: 68Ga-exendin4 PET dose escalation (self-blocking) study in NHP pancreas, Logan Vt. The format is in vivo, cynomolgus NHPs. Particulars: Vt of 68Ga-exendin4 vs coinjected unlabeled precursor peptide dose, 12 scans, estimated. The method, then: A ^68Ga-exendin4 PET/CT imaging study on healthy cynomolgus NHPs was in part reported and described in detail previously ([5]). Briefly, NHPs were scanned by ^68Ga-exendin4 PET using a dose escalation study design in which several examinations were performed, several hours apart, over the course of one or several experimental days. Each subsequent scan entailed a higher peptide mass and radioactive dose to minimize influence from the preceding scan (Table 1). The resulting dataset enabled analysis of the self-blocking effect of the increasing amounts of coinjected unlabeled exendin4 precursor peptide.
Previously, only the simplified SUV analysis of 3 of the NHPs (8 scans) was reported ([5]). In preparation for the design of the clinical study, to better understand the peptide doses at which self-blocking starts to occur, we reanalyzed the dynamic NHP data from all 12 scans by graphical analysis using an image-derived blood plasma input.
Pancreas and other tissues of interest (such as spleen as a negative reference tissue) were delineated using PMOD, version 4.0 (PMOD Technologies). The PET signal for each tissue and time frame was corrected for the injected amount, and the image-derived input function was extracted by segmenting voxels fully within the lumen of the descending aorta as identified on early PET frames and coregistered CT projections. […]

In data set [2] the target is T2, GLP1R in the pancreas (Homo sapiens, UniProt P43220).
T2 construct: underwent PET/CT scanning for GLP1R availability in the pancreas (^68Ga-exendin4); from tissue; host or cells: pancreas of living individuals with type 2 diabetes (in vivo PET/CT)
T2 sequence (P43220 24-463): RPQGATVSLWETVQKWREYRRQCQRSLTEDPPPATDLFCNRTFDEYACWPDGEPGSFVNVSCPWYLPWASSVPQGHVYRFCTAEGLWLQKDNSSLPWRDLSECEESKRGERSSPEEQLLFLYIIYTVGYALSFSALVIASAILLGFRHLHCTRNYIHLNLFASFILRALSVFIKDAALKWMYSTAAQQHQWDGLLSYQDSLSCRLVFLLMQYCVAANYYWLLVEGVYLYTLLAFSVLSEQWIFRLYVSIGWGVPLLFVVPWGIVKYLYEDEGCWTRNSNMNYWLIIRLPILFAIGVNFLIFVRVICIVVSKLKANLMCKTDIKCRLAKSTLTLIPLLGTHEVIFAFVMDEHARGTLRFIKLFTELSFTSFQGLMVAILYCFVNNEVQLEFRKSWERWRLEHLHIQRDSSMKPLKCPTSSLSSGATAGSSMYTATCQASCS
In kind it is in vivo. Particulars: humans with T2D, peptide dose less than 0.2 µg/kg; no negative correlation between peptide mass dose and net Ki. The procedure: The PET assessments were performed 3 h after a standardized meal followed by fasting, to minimize the variability in GLP1 levels at the time of scanning. The individuals were examined over the abdomen with a Discovery MI PET/CT scanner (20-cm field of view; GE Healthcare). Low-dose CT was performed for attenuation correction and anatomic coregistration of PET images. The dose of the CT scan was limited by dosimetry considerations, given that each individual underwent up to 4 PET/CT examinations over the entire clinical study. A 0.5 MBq/kg target dose of ^68Ga-exendin4 (0.46 ± 0.03 MBq/kg, corresponding to 0.14 ± 0.04 μg of peptide per kilogram) was administered intravenously as a bolus. The amount of administered ^68Ga-exendin4 was based primarily on limiting the associated dose of DO3A-VS-exendin4 precursor peptide to below 0.2 μg/kg. This limit was imposed to minimize any self-blocking, and the cutoff was determined from the NHP dose escalation studies. Dynamic PET was initiated at administration and continued for 60 min. […] For 3 individuals, arterial sampling was performed at 5, 30, and 60 min after ^68Ga-exendin4 administration to measure the radioactivity in whole blood and plasma and to determine the metabolic stability of the tracer (the methods are shown in the supplemental materials, available at http://jnm.snmjournals.org) (17). […]

On the set-up of data set [3]: species or system human. The following applies: in vivo; for Plasma-to-blood ratio: human, iv, 0.5 MBq/kg. The procedure:
Dynamic PET was initiated at administration and continued for 60 min. Blood sampling for glucose was performed before and during the scan as a safety precaution, as exendin4 can stimulate insulin secretion at pharmacologic doses. For 3 individuals, arterial sampling was performed at 5, 30, and 60 min after ^68Ga-exendin4 administration to measure the radioactivity in whole blood and plasma and to determine the metabolic stability of the tracer (the methods are shown in the supplemental materials, available at http://jnm.snmjournals.org) (17). Abdominal tissues of interest, including pancreas (target tissue), aorta (input signal), kidney (excretion), and spleen and erector spinae muscle (negative reference tissues) were manually segmented on coregistered PET/CT images using […] software, version 2.9 (Turku PET Center). The aorta was delineated by segmenting single voxels fully within the lumen of the descending aorta. The arterial plasma image-derived input function was generated by correcting the aorta signal for plasma-to-whole-blood partitioning and for the percentage of intact ^68Ga-exendin4 during the scan (based on a population estimate).

Data set [4] has as its system GLP1R. Particulars: in words, cited from earlier work. The procedure:
Exendin4 is a synthetic peptide that binds to GLP1R with nanomolar affinity and high specificity ([4]). […] In the absence of suitable antagonists, agonists such as exendin4 can be used as PET tracers, but care must be taken to avoid unwanted pharmacologic effects. […] Doses of around 0.5 µg/kg elicit up to 50% blocking of the signal.

Data set [5] deals with GLP1R. The following applies: in words; cited from earlier work. The procedure: In the absence of suitable antagonists, agonists such as exendin4 can be used as PET tracers, but care must be taken to avoid unwanted pharmacologic effects. […] Doses of around 0.5 µg/kg elicit up to 50% blocking of the signal.

T1 sequence (F8V479 24-463): as the sequence (P43220 24-463) above, with S112N, F120S, S202G, L205V, L237F, W241R, I249V counted along it

DO3A-VS-exendin4: the “dose inducing a 50% decrease in binding (in vivo half-maximal inhibitory concentration)” value in data set [1] is reported as “approximately 0.45 µg/kg”. Further, the self-blocking entry in data set [2] is recorded as “negligible”.
For the substance ^68Ga-DO3A-VS-exendin4 [^68Ga-exendin4], the Plasma-to-blood ratio in data set [3] (5 min) is 1.76 ± 0.06 1/1; in data set [3] (0.5 h) it was 1.80 ± 0.05 1/1; in data set [3] (1 h) it was 1.79 ± 0.05 1/1. The plasma partitioning result in data set [3] was “≈ 1.8”. The “affinity for GLP1R” value in data set [4] (radiolabeled tracer) is given as “nanomolar range”.
Consider exendin4 [reference compound], for which, in data set [4], the “affinity for GLP1R” value is given as “nanomolar”. Moreover, the GLP1R agonist potency result in data set [5] is “subnanomolar”.
